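Five concentrations, 48 hours, 96-well plates. At the TGI there is no net growth.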
Tests used:
Assay in all cases: NCI tumour cell line growth inhibition, 48 h
SNB-78 CNS = tested on: SNB-78 CNS
DMS 114 small cell lung = tested on: DMS 114 small cell lung
NCI-H23 lung = tested on: NCI-H23 lung
DMS 273 small cell lung = tested on: DMS 273 small cell lung
DLD-1 colon = tested on: DLD-1 colon
LXFL 529 NSCLC = tested on: LXFL 529 NSCLC
M19-MEL melanoma = tested on: M19-MEL melanoma
XF 498 CNS = tested on: XF 498 CNS
NCI-H460 lung = tested on: NCI-H460 lung
SK-MEL-2 melanoma = tested on: SK-MEL-2 melanoma
SK-MEL-5 melanoma = tested on: SK-MEL-5 melanoma
HOP-92 NSCLC = tested on: HOP-92 NSCLC
A549 NSCLC = tested on: A549 NSCLC
OVCAR-3 ovarian = tested on: OVCAR-3 ovarian
LOX IMVI melanoma = tested on: LOX IMVI melanoma
COLO 205 colon = tested on: COLO 205 colon
HT29 colon = tested on: HT29 colon
UACC-257 melanoma = tested on: UACC-257 melanoma
RXF 393 renal = tested on: RXF 393 renal
CAKI-1 renal = tested on: CAKI-1 renal
U251 CNS = tested on: U251 CNS
UO-31 renal = tested on: UO-31 renal
NCI-H522 lung = tested on: NCI-H522 lung
HCC-2998 colon = tested on: HCC-2998 colon
786-0 renal = tested on: 786-0 renal
SW-620 colon = tested on: SW-620 colon
OVCAR-4 ovarian = tested on: OVCAR-4 ovarian
UACC-62 melanoma = tested on: UACC-62 melanoma
SF-295 CNS = tested on: SF-295 CNS
EKVX NSCLC = tested on: EKVX NSCLC
SNB-75 CNS = tested on: SNB-75 CNS
SK-OV-3 ovarian = tested on: SK-OV-3 ovarian
SNB-19 CNS = tested on: SNB-19 CNS
RXF-631 renal = tested on: RXF-631 renal
IGROV1 ovarian = tested on: IGROV1 ovarian
HL-60(TB) leukemia = tested on: HL-60(TB) leukemia
M14 melanoma = tested on: M14 melanoma
KM12 colon = tested on: KM12 colon
SN12C renal = tested on: SN12C renal
KM20L2 colon = tested on: KM20L2 colon
HCT-15 colon = tested on: HCT-15 colon
SR leukemia = tested on: SR leukemia
ACHN renal = tested on: ACHN renal
HCT-116 colon = tested on: HCT-116 colon
MALME-3M melanoma = tested on: MALME-3M melanoma
CCRF-CEM leukemia = tested on: CCRF-CEM leukemia
OVCAR-8 ovarian = tested on: OVCAR-8 ovarian
A498 renal = tested on: A498 renal
TK-10 renal = tested on: TK-10 renal
SF-268 CNS = tested on: SF-268 CNS
HOP-18 NSCLC = tested on: HOP-18 NSCLC
OVCAR-5 ovarian = tested on: OVCAR-5 ovarian
MOLT-4 leukemia = tested on: MOLT-4 leukemia
HOP-62 NSCLC = tested on: HOP-62 NSCLC
RPMI-8226 leukemia = tested on: RPMI-8226 leukemia
SF-539 CNS = tested on: SF-539 CNS
K-562 leukemia = tested on: K-562 leukemia
SK-MEL-28 melanoma = tested on: SK-MEL-28 melanoma
NCI-H226 lung = tested on: NCI-H226 lung

## C/C=C(\NC(=O)C(CCCCN)NC(=O)C(C)NC(=O)C1CSC(C)C(NC(=O)C2CSCC(NC(=O)C(C)NC(=O)C(N)C(C)CC)C(=O)NC(CCCCN)C(=O)NC(Cc3ccccc3)C(=O)NC(CC(C)C)C(=O)N2)C(=O)N2CCCC2C(=O)NCC(=O)N1)C(=O)NCC(=O)NC1CSCC2NC(=O)C(Cc3ccc(O)cc3)NC(=O)C(CSC=CNC2=O)NC(=O)C(CC(N)=O)NC(=O)C(Cc2ccccc2)NC1=O (stereo not drawn)
SNB-78 CNS
  TGI: > 100 µM
DMS 114 small cell lung
  TGI: > 100 µM
NCI-H23 lung
  TGI: > 100 µM
DMS 273 small cell lung
  TGI: > 100 µM
DLD-1 colon
  TGI: > 100 µM
LXFL 529 NSCLC
  TGI: > 100 µM
M19-MEL melanoma
  TGI: > 100 µM
XF 498 CNS
  TGI: > 100 µM

## O=[N+]([O-])c1cc(/C=N\NS(=O)(=O)c2ccc(Cl)cc2)c(O)c([N+](=O)[O-])c1
NCI-H460 lung
  TGI: 54.4 µM
SK-MEL-2 melanoma
  TGI: > 100 µM
SK-MEL-5 melanoma
  TGI: 66.6 µM
HOP-92 NSCLC
  TGI: > 100 µM
A549 NSCLC
  TGI: > 100 µM
OVCAR-3 ovarian
  TGI: 54.1 µM
LOX IMVI melanoma
  TGI: > 100 µM
SNB-78 CNS
  TGI: > 100 µM
COLO 205 colon
  TGI: 31 µM
DMS 114 small cell lung
  TGI: > 100 µM
HT29 colon
  TGI: 58.9 µM
UACC-257 melanoma
  TGI: > 100 µM
NCI-H23 lung
  TGI: 50.8 µM
RXF 393 renal
  TGI: 91.9 µM
DMS 273 small cell lung
  TGI: 73.3 µM
CAKI-1 renal
  TGI: > 100 µM
DLD-1 colon
  TGI: > 100 µM
U251 CNS
  TGI: 54.3 µM
UO-31 renal
  TGI: > 100 µM
NCI-H522 lung
  TGI: 52.4 µM
HCC-2998 colon
  TGI: > 100 µM
786-0 renal
  TGI: > 100 µM
SW-620 colon
  TGI: > 100 µM
OVCAR-4 ovarian
  TGI: > 100 µM
UACC-62 melanoma
  TGI: > 100 µM
SF-295 CNS
  TGI: > 100 µM
EKVX NSCLC
  TGI: > 100 µM
SNB-75 CNS
  TGI: 73.5 µM
SK-OV-3 ovarian
  TGI: 83.5 µM
SNB-19 CNS
  TGI: 79.5 µM
RXF-631 renal
  TGI: > 100 µM
IGROV1 ovarian
  TGI: > 100 µM
HL-60(TB) leukemia
  TGI: 54 µM
M14 melanoma
  TGI: 99.6 µM
KM12 colon
  TGI: 67.1 µM
SN12C renal
  TGI: 87.4 µM
KM20L2 colon
  TGI: 74.1 µM
HCT-15 colon
  TGI: 53.1 µM
SR leukemia
  TGI: 45.2 µM
ACHN renal
  TGI: > 100 µM
LXFL 529 NSCLC
  TGI: > 100 µM
HCT-116 colon
  TGI: > 100 µM
MALME-3M melanoma
  TGI: > 100 µM
CCRF-CEM leukemia
  TGI: 78.5 µM
OVCAR-8 ovarian
  TGI: 64.5 µM
A498 renal
  TGI: 83 µM
M19-MEL melanoma
  TGI: > 100 µM
TK-10 renal
  TGI: > 100 µM
SF-268 CNS
  TGI: > 100 µM
HOP-18 NSCLC
  TGI: > 100 µM
OVCAR-5 ovarian
  TGI: > 100 µM
MOLT-4 leukemia
  TGI: 86 µM
HOP-62 NSCLC
  TGI: > 100 µM
RPMI-8226 leukemia
  TGI: 80.9 µM
SF-539 CNS
  TGI: 44.2 µM
K-562 leukemia
  TGI: 79.5 µM
SK-MEL-28 melanoma
  TGI: > 100 µM

## O=C1c2ccncc2C(=O)c2c(O)ccc(O)c21
NCI-H460 lung
  TGI: 29.4 µM
HOP-92 NSCLC
  TGI: 32.4 µM
A549 NSCLC
  TGI: 18.1 µM
OVCAR-3 ovarian
  TGI: 5.81 µM
LOX IMVI melanoma
  TGI: 18.3 µM
COLO 205 colon
  TGI: 13.1 µM
DMS 114 small cell lung
  TGI: 13 µM
HT29 colon
  TGI: 7.74 µM
RXF 393 renal
  TGI: 16.8 µM
U251 CNS
  TGI: 30.3 µM
UO-31 renal
  TGI: 29.7 µM
HCC-2998 colon
  TGI: 16.3 µM
786-0 renal
  TGI: 19.2 µM
SW-620 colon
  TGI: 11.5 µM
OVCAR-4 ovarian
  TGI: 23.6 µM
UACC-62 melanoma
  TGI: 10.6 µM
SF-295 CNS
  TGI: 25.1 µM
EKVX NSCLC
  TGI: 32.1 µM
SNB-75 CNS
  TGI: 49.1 µM
SNB-19 CNS
  TGI: 24.8 µM
IGROV1 ovarian
  TGI: 25.9 µM
HL-60(TB) leukemia
  TGI: 5.41 µM
M14 melanoma
  TGI: 19.5 µM
KM12 colon
  TGI: 32.8 µM
SN12C renal
  TGI: 16.1 µM
NCI-H226 lung
  TGI: 29.4 µM
KM20L2 colon
  TGI: 8.12 µM
HCT-15 colon
  TGI: 24.3 µM
SR leukemia
  TGI: 52.3 µM
ACHN renal
  TGI: 17.1 µM
LXFL 529 NSCLC
  TGI: 22 µM
HCT-116 colon
  TGI: 10.3 µM
MALME-3M melanoma
  TGI: 5.44 µM
CCRF-CEM leukemia
  TGI: 32.7 µM
OVCAR-8 ovarian
  TGI: 21.4 µM
A498 renal
  TGI: 33.1 µM
M19-MEL melanoma
  TGI: 9.58 µM
TK-10 renal
  TGI: 42.3 µM
SF-268 CNS
  TGI: 24.2 µM
HOP-18 NSCLC
  TGI: 25.5 µM
OVCAR-5 ovarian
  TGI: 29.9 µM
MOLT-4 leukemia
  TGI: 54.5 µM
HOP-62 NSCLC
  TGI: 61.6 µM
RPMI-8226 leukemia
  TGI: 30.4 µM
SF-539 CNS
  TGI: 13.4 µM
K-562 leukemia
  TGI: 55.5 µM
SK-MEL-28 melanoma
  TGI: 26.7 µM
XF 498 CNS
  TGI: 15.2 µM

## CCOC(=O)[C@@]12C(C)=CC(=O)O[C@]1(C)C1C(=O)NC(=O)C12 (stereo partly drawn)
NCI-H460 lung
  TGI: > 100 µM
SK-MEL-2 melanoma
  TGI: > 100 µM
SK-MEL-5 melanoma
  TGI: > 100 µM
HOP-92 NSCLC
  TGI: > 100 µM
A549 NSCLC
  TGI: > 100 µM
OVCAR-3 ovarian
  TGI: > 100 µM
LOX IMVI melanoma
  TGI: > 100 µM
SNB-78 CNS
  TGI: > 100 µM
COLO 205 colon
  TGI: > 100 µM
DMS 114 small cell lung
  TGI: > 100 µM
HT29 colon
  TGI: > 100 µM
UACC-257 melanoma
  TGI: > 100 µM
NCI-H23 lung
  TGI: > 100 µM
RXF 393 renal
  TGI: > 100 µM
DMS 273 small cell lung
  TGI: > 100 µM
DLD-1 colon
  TGI: > 100 µM
U251 CNS
  TGI: > 100 µM
UO-31 renal
  TGI: > 100 µM
HCC-2998 colon
  TGI: > 100 µM
786-0 renal
  TGI: > 100 µM
SW-620 colon
  TGI: > 100 µM
OVCAR-4 ovarian
  TGI: > 100 µM
UACC-62 melanoma
  TGI: > 100 µM
SF-295 CNS
  TGI: > 100 µM
EKVX NSCLC
  TGI: > 100 µM
SNB-75 CNS
  TGI: > 100 µM
SK-OV-3 ovarian
  TGI: > 100 µM
SNB-19 CNS
  TGI: > 100 µM
RXF-631 renal
  TGI: > 100 µM
IGROV1 ovarian
  TGI: > 100 µM
HL-60(TB) leukemia
  TGI: > 100 µM
M14 melanoma
  TGI: > 100 µM
KM12 colon
  TGI: > 100 µM
NCI-H226 lung
  TGI: > 100 µM
KM20L2 colon
  TGI: > 100 µM
ACHN renal
  TGI: > 100 µM
LXFL 529 NSCLC
  TGI: > 100 µM
HCT-116 colon
  TGI: > 100 µM
MALME-3M melanoma
  TGI: > 100 µM
CCRF-CEM leukemia
  TGI: > 100 µM
OVCAR-8 ovarian
  TGI: > 100 µM
A498 renal
  TGI: > 100 µM
TK-10 renal
  TGI: > 100 µM
HOP-18 NSCLC
  TGI: > 100 µM
MOLT-4 leukemia
  TGI: > 100 µM
HOP-62 NSCLC
  TGI: > 100 µM
RPMI-8226 leukemia
  TGI: > 100 µM
SF-539 CNS
  TGI: > 100 µM
K-562 leukemia
  TGI: > 100 µM
SK-MEL-28 melanoma
  TGI: > 100 µM

Reference: PubChem BioAssay (NCI)
